Measurements published in the supplement of paper PMC10307832.

Columns and labels:
Experiment in all cases: relative viability (nuclei count vs DMSO), 5 days (fraction); higher = more cells survive
[1] = compound: C1COCCN1C2=NC(=NC3=C2OC4=C3C=CC=N4)C5=CC(=CC=C5)NC(=O)C6=CN=C(C=C6)N + COc1cccc2cc(-c3nc([C@H]4CC[C@H](C(=O)O)CC4)n4ncnc(N)c34)[nH]c12 [OSI-027] (partner 0.5 µM)
Summary of the method: (§1)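 Lung cancer cell lines in 1536-well plates got either a single drug or a fixed anchor-drug dose together with five library-drug doses (not always all listed) in √10 steps, by pin tool, on the day after seeding. Nuclei were counted after 5 days, and relative viability is the treated-to-vehicle ratio of nuclei counts. Values are medians of duplicate plates.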

[2] = compound: Nc1ccccc1NC(=O)c1ccc(CNC(=O)OCc2cccnc2)cc1 [Entinostat] + Cc1nc(NC(=O)N2CCC[C@H]2C(N)=O)sc1-c1ccnc(C(C)(C)C(F)(F)F)c1 [Alpelisib] (partner 2 µM)
Summary of the method: as §1

[3] = compound: C1COCCN1C2=NC(=NC3=C2OC4=C3C=CC=N4)C5=CC(=CC=C5)NC(=O)C6=CN=C(C=C6)N + O=C(CCCCCCC(=O)Nc1ccccc1)NO [Vorinostat] (partner 1 µM)
Summary of the method: as §1

[4] = compound: CN1CCC(CNc2ccc3ncc(-c4cccc(OC(F)(F)F)c4)n3n2)CC1 [SGI-1776] + COc1cccc2cc(-c3nc([C@H]4CC[C@H](C(=O)O)CC4)n4ncnc(N)c34)[nH]c12 [OSI-027] (partner 0.5 µM)
Summary of the method: as §1

Row | Cell Line | relative viability ([1]; first compound 0.02 µM) | relative viability ([1]; first compound 0.06325 µM) | relative viability ([1]; first compound 0.2 µM) | relative viability ([1]; first compound 0.6325 µM) | relative viability ([1]; first compound 2 µM) | relative viability ([2]; first compound 0.02 µM) | relative viability ([2]; first compound 0.06325 µM) | relative viability ([2]; first compound 0.2 µM) | relative viability ([2]; first compound 0.6325 µM) | relative viability ([2]; first compound 2 µM) | relative viability ([3]; first compound 0.02 µM) | relative viability ([3]; first compound 0.06325 µM) | relative viability ([3]; first compound 0.2 µM) | relative viability ([3]; first compound 0.6325 µM) | relative viability ([3]; first compound 2 µM) | relative viability ([4]; first compound 0.08 µM) | relative viability ([4]; first compound 0.8 µM) | relative viability ([4]; first compound 2.53 µM) | relative viability ([4]; first compound 8 µM)
1 | LU99A | 0.308 | 0.288 | 0.241 | 0.274 | 0.267 | 0.517 | 0.5 | 0.546 | 0.418 | 0.324 | 0.435 | 0.546 | 0.365 | 0.418 | 0.309 | 0.294 | 0.286 | 0.303 | 0.262
2 | PC-3 [JPC-3] | 0.849 | 0.839 | 0.697 | 0.704 | 0.54 | 0.98 | 0.929 | 0.829 | 0.667 | 0.463 | 0.729 | 0.678 | – | 0.662 | 0.638 | 0.791 | 0.818 | 0.74 | 0.672
3 | NCI-H2126 | 0.664 | 0.767 | 0.652 | 0.675 | 0.708 | 0.738 | 0.708 | 0.614 | 0.46 | 0.317 | 0.707 | 0.941 | 0.758 | 0.786 | 0.582 | 0.708 | 0.813 | 0.693 | 0.659
4 | LXF-289 | 0.814 | 0.884 | 0.768 | 0.748 | 0.351 | 1.01 | 1.02 | 0.931 | 0.808 | 0.588 | 0.792 | 0.895 | 0.619 | 0.821 | 0.547 | 0.794 | 0.843 | 0.764 | 0.707
5 | BEN | 0.283 | 0.297 | 0.295 | 0.274 | 0.389 | 1.21 | 0.944 | 1.02 | 0.6 | 0.275 | 0.545 | 0.556 | 0.589 | 0.619 | 0.448 | 0.316 | 0.289 | 0.264 | 0.323
6 | SW 1573 | 0.592 | 0.776 | 0.75 | 0.477 | 0.371 | 0.672 | 0.665 | 1.04 | 0.819 | 0.83 | 0.737 | 0.953 | 0.705 | 0.552 | 0.451 | 0.673 | 0.715 | 0.631 | 0.391
7 | NCI-H1993 | 0.554 | 0.57 | 0.567 | 0.548 | 0.549 | 0.674 | 0.704 | 0.733 | 0.695 | 0.728 | 0.831 | 0.701 | 0.634 | 0.723 | 0.563 | 0.549 | 0.52 | 0.551 | 0.525
8 | SK-LU-1 | 0.38 | 0.36 | 0.348 | 0.329 | 0.266 | 0.954 | 0.962 | 0.943 | 0.555 | 0.458 | 0.741 | 0.742 | 0.736 | 0.647 | 0.482 | 0.397 | 0.328 | 0.335 | 0.166
9 | NCI-H460 | 0.578 | 0.639 | 0.505 | 0.237 | 0.185 | 0.491 | 0.463 | 0.285 | 0.0307 | 0.0143 | 1.51 | 0.788 | 0.907 | 0.559 | 0.221 | 0.68 | 0.587 | 0.646 | 0.255
10 | LCLC-97TM1 | 0.525 | 0.519 | 0.485 | 0.507 | 0.353 | 0.262 | 0.224 | 0.245 | 0.225 | 0.156 | 0.804 | 0.862 | 0.751 | 0.755 | 0.43 | 0.597 | 0.487 | 0.59 | 0.487
11 | HCC-78 | 0.409 | 0.389 | 0.369 | 0.407 | 0.329 | 0.342 | 0.32 | 0.238 | 0.133 | 0.104 | 0.444 | 0.5 | 0.431 | 0.326 | 0.334 | 0.407 | 0.418 | 0.385 | 0.398
12 | NCI-H1975 | 0.728 | 0.708 | 0.5 | 0.388 | 0.353 | 0.454 | 0.38 | 0.38 | 0.247 | 0.204 | 0.675 | 0.689 | 0.631 | 0.624 | 0.389 | 0.72 | 0.688 | 0.525 | 0.428
